This is an account of results in article PMC11241330, “Development of a Radiolabeled Cyclin-Dependent Kinases 4 and 6 (CDK4/6) Inhibitor for Brain and Cancer PET Imaging” (International Journal of Molecular Sciences, 2024).

SMILES strings stand for the structures.

The target of one assay is T1, CDK6 (Homo sapiens, UniProt Q00534).
T1 construct: purified recombinant CDK6/CyclinD3; with CyclinD3
As to the kind of experiment: luminescence kinase activity assay (BPS Bioscience CDK6/CyclinD3 kit #[…]). It counts as biochemical.

A further assay deals with T2, CDK4 (Homo sapiens, UniProt P11802).
T2 construct: purified recombinant CDK4/CyclinD3; with CyclinD3
The assay is described as follows: luminescence kinase activity assay (BPS Bioscience CDK4/CyclinD3 kit #[…]). It is filed as biochemical.

T1 sequence (Q00534 whole entry): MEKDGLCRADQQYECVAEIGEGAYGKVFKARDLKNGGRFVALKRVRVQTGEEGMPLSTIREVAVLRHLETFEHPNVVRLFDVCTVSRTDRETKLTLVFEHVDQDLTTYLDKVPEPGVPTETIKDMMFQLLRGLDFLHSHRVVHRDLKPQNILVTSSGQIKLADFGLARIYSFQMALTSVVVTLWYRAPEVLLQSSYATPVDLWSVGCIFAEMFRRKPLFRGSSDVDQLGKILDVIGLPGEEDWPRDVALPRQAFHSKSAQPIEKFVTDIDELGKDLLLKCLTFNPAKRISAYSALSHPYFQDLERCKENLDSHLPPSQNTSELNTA
T1 sequence (P30281 whole entry partner): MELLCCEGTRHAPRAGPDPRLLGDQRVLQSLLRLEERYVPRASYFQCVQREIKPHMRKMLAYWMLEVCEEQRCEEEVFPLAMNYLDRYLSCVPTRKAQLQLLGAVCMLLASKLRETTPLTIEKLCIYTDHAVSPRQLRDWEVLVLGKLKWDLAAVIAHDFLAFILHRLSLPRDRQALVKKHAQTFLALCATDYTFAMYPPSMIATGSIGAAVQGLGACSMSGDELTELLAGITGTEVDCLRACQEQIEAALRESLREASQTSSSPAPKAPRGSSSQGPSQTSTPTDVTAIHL
T2 sequence (P11802 2-303): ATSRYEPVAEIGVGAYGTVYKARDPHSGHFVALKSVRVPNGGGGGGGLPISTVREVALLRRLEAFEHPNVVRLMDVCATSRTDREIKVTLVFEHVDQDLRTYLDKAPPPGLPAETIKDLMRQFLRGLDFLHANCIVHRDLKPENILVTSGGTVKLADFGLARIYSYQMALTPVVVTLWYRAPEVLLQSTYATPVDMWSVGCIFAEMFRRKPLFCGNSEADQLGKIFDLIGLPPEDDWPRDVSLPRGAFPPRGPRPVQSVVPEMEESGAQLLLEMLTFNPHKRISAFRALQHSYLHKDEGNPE
T2 sequence (P30281 whole entry partner): as the sequence (P30281 whole entry partner) above

The IC50 is the concentration needed to halve the response being measured. Lower therefore signals inhibition by little substance. In the case of `CC(C)n1cnc2c(F)cc(-c3nc(Nc4ccc(CN5CCN(Cc6ccc(F)cc6)CC5)cn4)ncc3F)cc21` [NT431, 5-fluoro-4-(4-fluoro-1-isopropyl-1H-benzo[d]imidazol-6-yl)-N-(5-((4-(4-fluorobenzyl)piperazin-1-yl)methyl)pyridin-2-yl)pyrimidin-2-amine], the values for the IC50 against CDK6 and at CDK4 were 47.1 nM and 23.7 nM, respectively.
